Data taken from ChEMBL document CHEMBL5241104, “Reactive metabolites of the anticonvulsant drugs and approaches to minimize the adverse drug reaction” (Eur J Med Chem, 2021).

Legend:
[1] = Toxicity in Swiss albino mouse assessed as median toxicity dose at ip administration; format: organism-based; settings: in vivo
[2] = Toxicity in Swiss albino mouse assessed as lethality at 30 mg/kg,ip; format: organism-based; settings: in vivo, read-out: Activity
Rattus norvegicus [3] = organism: Rattus norvegicus; assay: Inhibition of sodium uptake in rat cerebral cortical synaptosomes at 300 uM incubated for 30 mins by scintillation counting analysis; format: functional; settings: Cerebral cortex, Synaptosome
[4] = Displacement of 3[H]BTX from rat cerebral cortical synaptosomes voltage-sensitive sodium channel incubated for 1.5 hrs by scintillation counting analysis; format: subcellular, Cerebral cortex, Synaptosome
Rattus norvegicus [5] = assay: Anticonvulsant activity in Wistar rat assessed as protection against maximal electroshock induced seizure at po administration; format: functional
Rattus norvegicus [6] = organism: Rattus norvegicus; assay: Inhibition of sodium uptake in rat cerebral cortical synaptosomes at 100 uM incubated for 30 mins by scintillation counting analysis; format: functional; settings: Cerebral cortex, Synaptosome
Rattus norvegicus [7] = organism: Rattus norvegicus; assay: Inhibition of sodium uptake in rat cerebral cortical synaptosomes at 30 uM incubated for 30 mins by scintillation counting analysis; format: functional; settings: Cerebral cortex, Synaptosome
Mus musculus [8] = assay: Anticonvulsant activity in mouse assessed as protection against maximal electroshock induced seizure at ip administration for 5 mins; format: functional
[9] = Toxicity in Swiss CD-1 mouse assessed as mortality at 100 mg/kg,ip; format: organism-based; settings: in vivo
Mus musculus [10] = assay: Anticonvulsant activity in Albino mouse brain assessed as increase in GABA level at 30 to 300 mg/kg,ip by spectrophotometric method; format: functional; settings: dose 30-300 mg/kg
Rattus norvegicus [11] = assay: Anticonvulsant activity in Wistar rat assessed as protection against maximal electroshock induced seizure at po administration for 60 mins; format: functional; settings: 1 h
Rattus norvegicus [12] = assay: Anticonvulsant activity against maximal electroshock induced seizure in Wistar rat assessed as reduction of time spent in extension phase at 50 mg/kg,po administration; format: functional
Mus musculus [13] = assay: Anticonvulsant activity in Albino mouse assessed as protection against maximal electroshock induced seizure at ip administration for 30 mins; format: functional; settings: 0.5 h
[14] = Protective index, ratio of TD50 for toxicity in Wistar rat assessed as median toxicity dose at po administration by rotorod test to ED50 for anticonvulsant activity in Wistar rat assessed as protection against maximal electroshock induced seizure at po administration; format: organism-based; settings: in vivo, read-out: Ratio TD50/ED50
Rattus norvegicus [15] = assay: Anticonvulsant activity in Wistar rat assessed as protection against maximal electroshock induced seizure by measuring median effective dose at po administration; format: functional
Mus musculus [16] = assay: Anticonvulsant activity in Swiss mouse assessed as protection against Sc-PTZ induced seizure at ip administration; format: functional
Mus musculus [17] = assay: Anticonvulsant activity in Swiss albino mouse assessed as protection against Sc-PTZ induced seizure at po administration; format: functional
Mus musculus [18] = assay: Anticonvulsant activity in Swiss albino mouse assessed as inhibition of maximal electroshock induced seizure at ip administration; format: functional
Mus musculus [19] = assay: Anticonvulsant activity in mouse assessed as inhibition of maximal electroshock induced seizure at 200 mg/kg,po administration for 120 mins; format: functional; settings: 2 h
Mus musculus [20] = assay: Anticonvulsant activity in CD-1 mouse assessed as protection against 6-Hz Psychomotor induced seizure at ip administration; format: functional
Mus musculus [21] = assay: Anticonvulsant activity in Albino mouse assessed as protection against maximal electroshock induced seizure at ip administration; format: functional
Mus musculus [22] = assay: Anticonvulsant activity in Albino mouse assessed as protection against Sc-PTZ induced seizure at ip administration; format: functional
[23] = Protective index, ratio of TD50 for toxicity in Albino mouse assessed as median neurotoxicity dose at ip administration by rotorod test to ED50 for anticonvulsant activity in Albino mouse assessed as protection against Sc-PTZ induced seizure at ip administration; format: organism-based; settings: in vivo, read-out: Ratio TD50/ED50
[24] = Protective index, ratio of TD50 for toxicity in Albino mouse assessed as median neurotoxicity dose at ip administration by rotorod test to ED50 for anticonvulsant activity in Albino mouse assessed as protection against maximal electroshock induced seizure at ip administration; format: organism-based; settings: in vivo, read-out: Ratio TD50/ED50

With `CCCC(CCC)C(=O)N/N=C/c1ccncc1` the TD50 [1] was 346 mg/kg.
Work on `COc1ccc(NC(=O)CN2C(=O)C3(Nc4ccccc4-c4nc(=O)c(C)nn43)c3ccccc32)cc1` (centres undefined) yielded a mortality [2] of 20%.
In the case of `CC(=O)OC1Cc2ccccc2N(C(N)=O)c2ccccc21` (centres undefined), the inhibition (Rattus norvegicus [3]) is reported as 82.1%, the IC50 [4] is reported as 138 µM and the Activity (Rattus norvegicus [5]) is reported as 54.4%. The inhibition (Rattus norvegicus [6]) was 61.8% and the inhibition (Rattus norvegicus [7]) was 42.2%.
`O=C(NC1CCCCC1)C(c1ccc(Cl)cc1)N1Cc2cnnn2-c2ccccc2C1=O` (centres undefined) gave an Activity (Mus musculus [8]) of 100%.
`COc1ccccc1N1CCN(CCCN2CCCC2=O)CC1` showed a mortality [9] of 25%.
Compound `CN1C(=O)CC(=O)N(c2ccccc2)c2cc(Cl)ccc21` [CLOBAZAM] has an Activity (Mus musculus [10]) of 54.9 mg.
Compound `COc1ccc(C2CC(c3ccc(Cl)cc3)=Nc3ccccc3N2)cc1` (centres undefined) has an Activity (Rattus norvegicus [11]) of 52% and a Time (Rattus norvegicus [12]) of 8.5 s.
With `O=C1Nc2ccc(Cl)cc2C(c2ccccc2)=NC1/N=N/c1ccc(Cl)cc1` (centres undefined) the Activity (Mus musculus [13]) was 100%.
`O=C1Nc2ccc(Br)cc2C12Nc1ccccc1-c1nc(=O)c(-c3ccccc3)nn12` (centres undefined) gave a mortality [2] of 30%.
For `CCCC(CCC)C(=O)N/N=C/c1cc(OC)ccc1OC`, the TD50 [1] was 457 mg/kg.
With `CC(=O)O[C@@H]1Cc2ccccc2N(C(N)=O)c2ccccc21` the inhibition (Rattus norvegicus [3]) was 73.2%, the IC50 [4] was 141 µM and the Activity (Rattus norvegicus [5]) was 5.9%. It also gave an inhibition (Rattus norvegicus [6]) of 57.7%, a selectivity ratio [14] greater than 91.7 and an inhibition (Rattus norvegicus [7]) of 17.9%. It also gave an ED50 (Rattus norvegicus [15]) of 4.7 mg/kg.
`O=C1NC(=O)C(c2ccccc2)(c2ccccc2)N1` [PHENYTOIN] showed an ED50 (Mus musculus [16]) greater than 300 mg/kg.
Compound `CCC(=O)CCCCCN1C(=O)NC2(C1=O)c1ccccc1-c1ccccc12` has an Activity (Mus musculus [17]) of 100%.
For `CCOc1cc(/C=C2/N=C(c3ccccc3)c3cc([N+](=O)[O-])ccc3NC2=O)ccc1O`, the “inhibition (INH)” value (Mus musculus [18]) was 75%.
In the case of `CCOc1ccccc1N1CCN(CCCN2CCCC2=O)CC1`, the mortality [9] is reported as 25%.
For `O=C1CCCN1CC(O)CN1CCN(c2ccccc2O)CC1` (centres undefined), the mortality [9] was 14.2%.
Work on `CC1(C)O[C@H]2CO[C@]3(COS(=O)(=O)N=[N+]=[N-])OC(C)(C)OC3[C@H]2O1` (some centres undefined) yielded an inhibition in vivo at 200 mg/kg (Mus musculus [19]) of no less than 80%.
Work on `O=C1Nc2ccc(Cl)cc2C(c2ccccc2)=NC1/N=N/c1ccc(F)cc1` (centres undefined) yielded an Activity (Mus musculus [13]) of 100%.
With `CCCC(CCC)C(=O)O` [VALPROIC ACID] the ED50 (Mus musculus [20]) was 131 mg/kg.
Work on `CN(C)c1ccc(/C=N/Nc2nnc(-c3ccccc3)nc2Cc2ccc(Cl)cc2)cc1` yielded an Activity (Mus musculus [10]) of 37.3 mg, an ED50 (Mus musculus [21]) of 46 mg/kg and an ED50 (Mus musculus [22]) of 83.9 mg/kg. The selectivity ratio [23] was 4.29 and the selectivity ratio [24] was 7.82.
For `CCC1(C)CC(=O)NC1=O` (centres undefined) [ETHOSUXIMIDE], the ED50 (Mus musculus [20]) was 222 mg/kg.
`O=[N+]([O-])c1ccc(C2CC(c3ccc(Cl)cc3)=Nc3ccccc3N2)cc1` (centres undefined) gave an Activity (Rattus norvegicus [11]) of 56% and a Time (Rattus norvegicus [12]) of 7.25 s.
Work on `CN1C(=O)CN=C(c2ccccc2)c2cc(Cl)ccc21` [DIAZEPAM] yielded an Activity (Mus musculus [8]) of 87.5%.
